Reference: publication PMC8652888, “Angiogenesis, Anti-Tumor, and Anti-Metastatic Activity of Novel α-Substituted Hetero-Aromatic Chalcone Hybrids as Inhibitors of Microtubule Polymerization” (Frontiers in Chemistry, 2021)
Several values for one entry are separate records, joined by “and”; a condition that tells them apart may be missing. Equal entries are not always repeated. Where two headings read alike, the source gives them in different places.

Columns and labels:
Assay type in all cases: cell-based, human
MCF-7 = experiment: Antiproliferative activity, SRB assay;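 note: proliferation of MCF7 cells quantified by sulforhodamine B staining, with optical density read at 560 nm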
Description: The synthesized compounds were first evaluated for their cytotoxic effect on MCF-7 (human breast adenocarcinoma), U937 (histiocytic lymphoma cancer), HepG2 (human liver cancer) cells, and MGC-803 (human gastric cancer) using the SRB and CCK-8 assay.
The primary tumor cells were purchased from a professional biomedical company. First, the primary tumor cells were incubated in a cell culture incubator at 37°C and 5% CO2. After the cell fusion reached 85%–95%, subculture was performed, and the tumor cells obtained at this time were used for subsequent related experiments. The CCK-8 method was used to inhibit the proliferation of U937 tumor cells, and the SRB method was used to inhibit the proliferation of MCF7 and HepG2 tumor cells.
Cells were distributed into 96-well plates with a density of 3 × 10^3–4 × 10^3 cells per well and incubated for 24 h in a 5% CO2 incubator at 37°C, followed by treatment with study compounds at different concentrations at 37°C for 72 h. One hundred microliters of 10% (w/v) trichloroacetic acid was added to each well, fixed at 4°C for 30 min, and dried at 65°C. Then 100 μl of 0.4% SRB was added to each well and stained on a shaker for 20 min at room temperature. The excess dye solution was washed with newly prepared 1% glacial acetic acid and dried at 65°C. One hundred fifty microliters of 10 mM unbuffered Trisbase was added to each well of the plate and shaken for 5 min to dissolve the dye. The microplate reader measured the optical density (OD) at a wavelength of 560 nm.

MCF-7 cells [1] = experiment: Apoptosis analysis, Annexin-V FITC/PI flow cytometry; conditions: for Late-apoptosis (Q2 of Annexin/PI plot), single runs / Pro-apoptosis (Q3 of Annexin/PI plot), single runs / percentage of apoptotic cells (early and late apoptosis): 48 h
Description: To test whether compound 7m induced reduction in cell viability was responsible for the induction of apoptosis, MCF-7 cells were stained with Annexin-V FITC/PI staining, and the number of apoptotic cells was estimated by flow cytometry.
The MCF-7 cells in 12-well plates (8 × 10^4 cells/well) were cultured for 24 h at 37°C in 5% CO2 and then incubated with 7m at concentrations of 100, 200, 400 nM, or vehicle to induce cell apoptosis for 48 h. Then the cells floating in the supernatant were combined with the adherent fraction and washed with PBS three times. The cells were incubated with Annexin V-FITC and PI for 15 min at 37°C in the dark. Apoptosis was quantified using a flow cytometer (Becton, Dickinson and Company, USA).

[2] = system: Caspase-3/-7/-9 and PARP in MCF-7 cells; experiment: Western blot of apoptosis-related proteins
Excerpt: The Caspase family proteins are considered to be critical regulators of cell apoptosis and facilitate cellular disassembly. Among them, Caspase-9 is termed as a typical caspase and is usually activated first, which in turn activates the “executioner” of apoptosis induction, in particular, Caspase-3. It is known that the […] of poly (ADP-ribose) polymerase (PARP), a downstream substrate of Caspase-3, is a common feature of nuclear fragmentation and chromatin condensation ([Hensley and Kyprianou, 2013]). Thus, the association between 7m-induced apoptosis and the expression of these proteins was investigated by Western blot analysis. MCF-7 cells were treated with 7m at different concentrations (100, 200, and 400 nM) for 48 h.
MCF-7 cells were seeded into […] dishes at a density of 6 × 10^5/dish and incubated for 24 h. After treating the cells with the compound 7m, the cells were cultured for 48 h and washed with PBS, and then the soluble and insoluble tubulin fractions were collected. Protein quantification was performed by BCA Protein Concentration Determination Kit following centrifugation at 12,000 rpm for 10 min at 4°C. Cell lysates were separated by SDS-PAGE at 80 V constant voltage for 30–40 min. […] After 5% skim milk was blocked for 1 h, the primary antibody was added and incubated overnight before being washed three times with PBST. The secondary antibody was incubated for 2 h at room temperature the next day and subsequently washed three times with PBST. Then the signal was detected with ECL.

MCF-7 cells [3] = experiment: Wound healing assay; conditions: 48 h
Description: In order to evaluate whether 7m could suppress migration and invasion, the MCF-7 cell culture was performed by wound healing and Transwell Matrigel assay, respectively.
MCF-7 cells and HUVECs cells were grown in 24-well plates at a density of 1 × 10^6 cells per well for 24 h. Scratches were made in confluent monolayers by […] pipette tips. The media containing different concentrations of 7m were added to the Petri dishes. […] The migration distance of cells migrated to the wound area was measured manually.

HUVECs = experiment: Transwell cell invasion experiment; conditions: 1, 5, 25 μΜ
Description: A wound healing assay was, thus, performed to evaluate the capacity of 7m to inhibit cell motility. […] Then the invasion inhibitory activities of 7m were further detected using Transwell assay with HUVECs cells treated with 0, 1, 5, and 25 μΜ of 7m. In this assay, […] were seeded into upper chambers which were pre-coated with Matrigel matrix in order to evaluate the cellular invasion.
The upper chamber of the Transwell chamber was filled with cells resuspended in serum-free medium, 6 × 10^4 cells per well, 100 μl per well, and the lower chamber was added with 10% FBS-containing medium prepared with different concentrations of 7m. The cells were allowed to migrate for 48 h at 37°C in an atmosphere of 5% CO2. Then the migration of cells to the underside of the filter was determined by crystal violet staining.

HepG2 = experiment: Antiproliferative activity, SRB assay
Outline: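 Cells seeded at 3 × 10^3–4 × 10^3 per well, grown 24 h, then exposed to compounds at various concentrations for 72 h at 37 °C. TCA-fixed cells stained with 0.4% SRB; bound dye dissolved in 10 mM Tris base and OD read at 560 nm.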

“3-(benzofuran-6-yl)-2-methyl-1-(3,4,5-trimethoxyphenyl)prop-2-en-1-one [Compound 7m]” was tested, and the IC50 (MCF-7; 72 h, triplicate, mean ± SD, read-out: IC50 ± SD, MCF-7) was 183 ± 32 nM, the IC50 (MCF-7; Table 3, triplicate, read-out: IC50 ± SD, MCF7) was 183 ± 32 nM and the IC50 (MCF-7; three single determinations, read-out: MCF-7 (raw data of table 3, IC50)) was 146 nM and 223 nM and 180 nM. For the same substance, the “Late-apoptosis AVERAGE” value (MCF-7 cells [1]; 100nM) was 37.3, the “Pro-apoptosis AVERAGE” value (MCF-7 cells [1]; 100nM) was 6.425 and the “Late-apoptosis (Q2 of Annexin/PI plot), single runs” value (“Late-apoptosis … single runs” for short) (MCF-7 cells [1]; 100nM) was 36 and 38.6. For the same substance, the “Pro-apoptosis (Q3 of Annexin/PI plot), single runs” value (shortened to “Pro-apoptosis … single runs”) (MCF-7 cells [1]; 100nM) was 7.59 and 5.26, the “percentage of apoptotic cells (early and late apoptosis)” value (shortened to “percentage of apoptotic cells”) (MCF-7 cells [1]; 100nM) was 44% and the “Late-apoptosis AVERAGE” value (MCF-7 cells [1]; 200nM) was 48.8. The “Pro-apoptosis AVERAGE” value (MCF-7 cells [1]; 200nM) was 3.01, the “Late-apoptosis … single runs” value (MCF-7 cells [1]; 200nM) was 49.3 and 48.3 and the “Pro-apoptosis … single runs” value (MCF-7 cells [1]; 200nM) was 3.29 and 2.73. For the same substance, the “percentage of apoptotic cells” value (MCF-7 cells [1]; 200nM) was 53%, the “Late-apoptosis AVERAGE” value (MCF-7 cells [1]; 400nM) was 52.3 and the “Pro-apoptosis AVERAGE” value (MCF-7 cells [1]; 400nM) was 4.22. For the same substance, the “Late-apoptosis … single runs” value (MCF-7 cells [1]; 400nM) was 52.8 and 51.8, the “Pro-apoptosis … single runs” value (MCF-7 cells [1]; 400nM) was 4.66 and 3.78 and the “percentage of apoptotic cells” value (MCF-7 cells [1]; 400nM) was 57%. The “Caspase3, band quantification” value ([2]; 100nM, two runs) was 1.6879 and 1.67, the “Caspase7, band quantification” value ([2]; 100nM, two runs) was 1.25 and 1.4891 and the “Caspase9, band quantification” value ([2]; 100nM, two runs) was 0.8806. The “Cleaved caspase 3, band quantification” value ([2]; 100nM, two runs) was 0.4362 and 0.4615, the “Cleaved caspase 7, band quantification” value ([2]; 100nM, two runs) was 0.3077 and 0.3272 and the “Cleaved caspase 9, band quantification” value ([2]; 100nM, two runs) was 0.7024 and 0.6835. For the same substance, the “Cleaved parp, band quantification” value ([2]; 100nM, two runs) was 0.5428 and 0.547, the “Caspase3, band quantification” value ([2]; 200nM, two runs) was 1.615 and 1.544 and the “Caspase7, band quantification” value ([2]; 200nM, two runs) was 1.204 and 1.374. The “Caspase9, band quantification” value ([2]; 200nM, two runs) was 0.8807 and 0.8294, the “Cleaved caspase 3, band quantification” value ([2]; 200nM, two runs) was 0.3538 and 0.3842 and the “Cleaved caspase 7, band quantification” value ([2]; 200nM, two runs) was 0.3681 and 0.3821. For the same substance, the “Cleaved caspase 9, band quantification” value ([2]; 200nM, two runs) was 0.8845 and 0.8641, the “Cleaved parp, band quantification” value ([2]; 200nM, two runs) was 0.6141 and 0.6251 and the “PARP, band quantification” value ([2]; 200nM, two runs) was 0.2886 and 0.4533. For the same substance, the “Caspase3, band quantification” value ([2]; 400nM, two runs) was 1.359 and 1.362, the “Caspase7, band quantification” value ([2]; 400nM, two runs) was 1.134 and 1.286 and the “Caspase9, band quantification” value ([2]; 400nM, two runs) was 0.8246 and 0.7921. For the same substance, the “Cleaved caspase 3, band quantification” value ([2]; 400nM, two runs) was 0.6252 and 0.6493, the “Cleaved caspase 7, band quantification” value ([2]; 400nM, two runs) was 0.3556 and 0.4028 and the “Cleaved caspase 9, band quantification” value ([2]; 400nM, two runs) was 0.8063 and 0.765. For the same substance, the “Cleaved parp, band quantification” value ([2]; 400nM, two runs) was 0.6767 and 0.7365, the “activation of Caspase-3/-7/-9” value ([2]; 100, 200, 400 nM, 48 h) was “concentration-dependent activation” and the “cleavage of PARP” value ([2]; 100, 200, 400 nM, 48 h) was “significant cleavage of PARP”. For the same substance, the “wound healing of MCF-7 cells (migration)” value (MCF-7 cells [3]) was “significantly inhibited the wound healing”, the “invasion ability of cells” value (HUVECs) was “invasion ability of cells gradually weakened” and the IC50 (HepG2; 72 h, triplicate, mean ± SD, read-out: IC50 ± SD, HepG2) was 70 ± 1 nM. For the same substance, the IC50 (HepG2; supplement raw data of table 2, read-out: IC50(Hepg2)) was 70.5 nM.
